According to PMC5701137, “Discovery of novel choline acetyltransferase inhibitors using structure-based virtual screening” (Scientific Reports, 2017):
“And” between values parts separate entries of the source, which are not always exact repeats. Identical values can stand only once.

Assays:
[1] = biological target: T1, human rChAT (Homo sapiens, UniProt P28329); test: In vitro ChAT activity inhibition fluorometric assay and kinetic studies; assay type: biochemical; details: for inhibition at 100 µM: read-out: ChAT % IR (inhibition rate)
T1 construct: made in house; host or cells: E. coli BL21 Rosetta2
T1 sequence (P28329 1-630 isoform P28329-3): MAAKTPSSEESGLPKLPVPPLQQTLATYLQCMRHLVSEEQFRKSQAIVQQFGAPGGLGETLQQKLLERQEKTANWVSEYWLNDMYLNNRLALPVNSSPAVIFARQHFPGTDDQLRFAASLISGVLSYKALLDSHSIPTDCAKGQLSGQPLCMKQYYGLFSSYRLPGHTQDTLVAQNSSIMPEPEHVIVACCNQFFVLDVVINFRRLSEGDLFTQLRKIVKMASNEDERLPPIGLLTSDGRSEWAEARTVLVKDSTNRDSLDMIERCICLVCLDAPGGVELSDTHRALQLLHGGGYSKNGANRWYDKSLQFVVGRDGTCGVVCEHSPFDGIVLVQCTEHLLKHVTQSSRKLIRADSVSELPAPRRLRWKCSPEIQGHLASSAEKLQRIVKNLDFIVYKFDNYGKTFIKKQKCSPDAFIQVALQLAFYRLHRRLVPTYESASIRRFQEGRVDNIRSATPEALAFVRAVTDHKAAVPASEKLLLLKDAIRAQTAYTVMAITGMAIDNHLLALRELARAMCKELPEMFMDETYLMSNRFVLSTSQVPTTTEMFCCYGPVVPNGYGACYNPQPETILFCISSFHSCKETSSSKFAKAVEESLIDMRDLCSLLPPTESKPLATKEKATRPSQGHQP
Method: ChAT activity was measured using our newly developed fluorometric assay, using human recombinant ChAT (rChAT) protein. The reagents, choline chloride, acetyl coenzyme-A (ACoA, A2181) and 7-Diethylamino-3-(4-maleimidophenyl)-4-methylcoumarin (CPM) were purchased from Sigma-Aldrich (St. Louis, MO, USA).
The ChAT assay could be run in either 96-well or 384-well plates. For 96-well plates, 50 μL/well of 0.212 µg/ml (final concentration) of the recombinant ChAT was incubated with 100 μM different Asinex compounds (50 μL/well) for 10–30 minutes at room temperature in dilution buffer (10 mM Tris-HCl, pH 7.4, 150 mM NaCl, 1.0 mM EDTA, 0.05% (v/v) Triton X-100). Then, 50 µL of a cocktail-A [dilution buffer containing choline chloride (final concentration 150 µM), ACoA (final concentration 13.3 µM) and CPM (final concentration 15 µM)] was added to each well. Immediately after adding the cocktail-A, the changes in fluorescence was monitored kinetically at 479 nm after exciting at 390 nm at 1–2 minute intervals for 15–20 minutes using a microplate spectrophotometer reader (Infinite M1000, Tecan).
Each Asinex compounds were run in triplicates. On each 96-wells plate, several enzyme wells without inhibitor were also included during measurements as control and for estimating the inhibition level. Negative controls were wells without enzyme. The percentage inhibition for each Asinex compound was calculated based on the enzyme control value as a reference (100% activity). The compounds showing over 50% inhibition of enzyme activity were selected for further kinetic studies.
(§1) For kinetic studies, a similar protocol as inhibition assay was followed; a dilution series of five different concentrations ranging from 10^−6 to 10^−9 M were prepared for each selected Asinex compounds. For ChAT, the A-CoA was kept constant at 10 μM (final) but the concentration of choline chloride varied between 320–10 μM. For BuChE, BTC was used as the substrate in the concentrations ranging from 0.0625 to 2 mM. For AChE, ATC was used as the substrate in the concentrations ranging from 0.0312 to 1 mM. Each compound concentration was measured in duplicates. The rate of enzyme activity (as ∆OD/hr kinetic data) was calculated and processed using the GraphPad Prism 7 analysis software. The inhibitory constant (Ki) values were determined from the dose-response curve and the half-maximal inhibitory concentration (IC50) values were calculated by plotting the percentage enzyme activity vs. the log of the Asinex compound concentrations and fitting the data using the nonlinear regression Enzyme Kinetics-Inhibition function.
The Michaelis-Menten constant (Km) and maximal velocity (Vmax) values were calculated from substrate-velocity curve after fitting the data with non-linear regression Michaelis-Menten kinetic function. The Km and Vmax values were further used to plot the Lineweaver-Burk plots; the plots were fitted using linear regression function.

[2] = biological target: T2, recombinant human AChE (Homo sapiens, UniProt P22303); test: Modified Ellman's colorimetric assay for AChE and kinetic studies; assay type: biochemical; details: for inhibition at 200 µM: read-out: AChE % IR (inhibition rate); for Ki / IC50: mean of two experiments; for IC50: substrate ATC 0.5 mM
T2 construct: purchased Sigma C1682
Source text: (§2) A modified version of Ellman’s colorimetric assay[16],[17] was adapted to a high throughput assay for the enzymatic activity of BuChE and AChE. The reagent, butyrylthiocholine iodide (BTC), acetylthiocholine iodide (ATC), 5,5′-dithiobis (2-nitrobenzoic acid) (DTNB) were purchased from Sigma-Aldrich (St. Louis, MO, USA). The modified assay details are as previously described[34],[35]. The main modification concerned with the high throughput adaptation of the assay for use in 384-well plates. Briefly, 25 μL/well of a 1:450 diluted solution of a pooled human plasma and 1:768 diluted (3.5 ng/ml final concentration) purified recombinant human AChE protein (Sigma, Cat no. C1682) was used for measurement of BuChE and AChE activity, respectively. In the initial in vitro screening step, the wells were pre-incubated with 25 μL/wells of different Asinex compounds for 10–30 minutes at room temperature. The concentration of the compounds working solution was 3X to give a final concentration of 200 μM in a final volume of 75 μL in each well. The stock concentration of the compounds were prepared in 100% DMSO. The stock concentration was chosen usually at 10 mM, allowing the final DMSO concentration in the wells to be less than 4%. Finally, 25 μL of a cocktail mix prepared in Na/K phosphate buffer, containing DTNB (final concentration 0.4 mM) and BTC, (final concentration 1 mM) or ATC (final concentration 0.5 mM) was added to each well and the changes in absorbance was monitored at 412 nm wavelength for 15–20 minutes with one-minute interval, using a microplate spectrophotometer reader (Infinite M1000, Tecan). The rate of the enzyme activity was determined from the linear part of the kinetic reaction curves as ∆OD/time.
as §1

[3] = biological target: T3, plasma BuChE (Homo sapiens, UniProt P06276); test: Modified Ellman's colorimetric assay for BuChE (pooled human plasma) and kinetic studies; assay type: biochemical; details: for inhibition at 200 µM: read-out: BuChE % IR (inhibition rate)
T3 construct: 1:450 diluted solution of a pooled human plasma; from tissue; host or cells: pooled human plasma
Source text: as §2, §1

[4] = test system: HEK 293 cells; test: MTT cell viability assay; assay type: cell-based; details: overnight, control cells 100%, mean ± SD of 3 readings
Method: Finally, to assess the prospective of the identified compounds for further development into ChAT ligands, we assessed the compounds active against ChAT, AChE and BuChE, for their cellular toxicity on human embryonic kidney (HEK 293) cells using the cell viability 3-(4,5-dimethylthiazol-2-yl)-2,5-diphenyltetrazolium bromide (MTT) assay. All compounds were evaluated at 10 and 50 µM concentrations. The cell viability data is given in Table 4 (also represented as a bar chart in Fig. 9).
The in vitro cellular toxicity of the active compounds was evaluated using MTT assay. Briefly, Human embryonic kidney epithelial (HEK-293) cells cultured at 37 °C in a humidified environment with 5% CO2 in Dulbecco’s Modified Eagle’s medium (DMEM) in 96 well plate to obtain 70–80% confluency. Further, the cells were incubated overnight at 37 °C with 10 µM and 50 µM compounds in triplicate. Cells treated with 1% DMSO were used as controls. At the end of the treatment (12 h), 10 μL of 12 mM MTT dissolved in Phosphate buffer saline pH 7.4, was added to each well and incubated for an additional 2 h at 37 °C. The media was then removed from the plate and 100 µL of DMSO was added to dissolve the violet formazan crystals. Finally, the absorbance was measured at 540 nm with a reference wavelength of 630 nm on Tecan spectrophotometer with shaking before the reading. The percentage viability was calculated taking 1% DMSO control as 100 percent and presented as mean ± SD.

[5] = biological target: T1, human rChAT; test: In vitro ChAT activity inhibition fluorometric assay and kinetic studies; assay type: biochemical; details: mean ± SEM of two experiments
[6] = test system: ChAT; design: method as in PMID 27507101; details: as previously reported by our group ref 26; cited from earlier work
[7] = 100 µM compound, compared to control, mean of three experiments in triplicate
[8] = 200 µM compound, compared to control, mean of three experiments in triplicate
[9] = substrate BTC 1 mM, mean of two experiments
[10] = Lineweaver-Burk plot and nonlinear regression fit
[11] = 200 µM compound, compared to control, mean of three experiments in triplicate, 200 µM

T3 sequence (P06276 29-602): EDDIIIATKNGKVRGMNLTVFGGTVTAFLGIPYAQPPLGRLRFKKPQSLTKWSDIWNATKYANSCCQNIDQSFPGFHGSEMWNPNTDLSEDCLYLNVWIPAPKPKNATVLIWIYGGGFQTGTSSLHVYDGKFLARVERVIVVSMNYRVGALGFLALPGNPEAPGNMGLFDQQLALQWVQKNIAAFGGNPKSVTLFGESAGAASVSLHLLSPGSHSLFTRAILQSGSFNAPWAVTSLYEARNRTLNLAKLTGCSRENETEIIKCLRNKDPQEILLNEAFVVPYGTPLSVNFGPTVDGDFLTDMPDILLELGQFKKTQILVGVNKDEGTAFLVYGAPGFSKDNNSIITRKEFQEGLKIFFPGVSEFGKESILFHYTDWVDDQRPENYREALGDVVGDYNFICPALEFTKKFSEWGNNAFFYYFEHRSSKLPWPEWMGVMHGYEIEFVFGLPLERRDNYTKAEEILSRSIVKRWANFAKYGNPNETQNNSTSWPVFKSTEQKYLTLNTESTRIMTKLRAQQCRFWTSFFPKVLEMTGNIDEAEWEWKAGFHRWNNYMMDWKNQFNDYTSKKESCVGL
T2 sequence (P22303 32-614): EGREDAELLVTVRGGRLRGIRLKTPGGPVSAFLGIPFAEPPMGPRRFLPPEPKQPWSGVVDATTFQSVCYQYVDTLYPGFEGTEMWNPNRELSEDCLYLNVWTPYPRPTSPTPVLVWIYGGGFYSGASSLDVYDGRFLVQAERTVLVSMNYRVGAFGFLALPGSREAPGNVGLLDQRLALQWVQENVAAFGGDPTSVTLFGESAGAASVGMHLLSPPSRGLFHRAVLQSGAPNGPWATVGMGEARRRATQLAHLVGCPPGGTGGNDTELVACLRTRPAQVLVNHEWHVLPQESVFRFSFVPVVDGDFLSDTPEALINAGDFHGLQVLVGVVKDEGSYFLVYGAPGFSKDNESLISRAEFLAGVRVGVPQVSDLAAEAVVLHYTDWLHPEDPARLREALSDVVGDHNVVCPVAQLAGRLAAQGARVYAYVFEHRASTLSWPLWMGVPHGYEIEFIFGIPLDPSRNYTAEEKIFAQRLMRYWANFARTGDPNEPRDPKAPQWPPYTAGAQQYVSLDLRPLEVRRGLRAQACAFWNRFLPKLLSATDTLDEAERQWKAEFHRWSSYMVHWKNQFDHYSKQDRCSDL

Row | Structure (SMILES) | inhibition at 100 µM [1, 7] [%] | inhibition at 200 µM [2, 8] [%] | inhibition at 200 µM [3, 8] [%] | Ki ([3]; mean of two experiments) [µM] | IC50 [3, 9] | % of cell proliferation ([4]; 10 µM) [%] | % of cell proliferation ([4]; 50 µM) [%] | Ki [2] [µM] | IC50 [2] | other results
1 | O=C(NC1CCCC1)c1ccc(CN2CCN(Cc3ccccc3)CC2)cc1 [Compound A2] | 6.9 | 0 | > 50 | 84.9 | 527 µM | 62.1 ± 4.0 | 72.2 ± 13.1 | – | – | –
2 | CCc1ccc2[nH]c3nc(SCCC(=O)N4CCCCCC4)nnc3c2c1 [Compound B1] | – | 9 | 15 | – | – | – | – | – | – | mode of inhibition of human rChAT [1, 10]: mixed-model inhibition; Vmax of rChAT ([1]; inhibitor 0.4 µM, mean ± SEM of two experiments): 247.3 ± 17.8 µM/min; Ki ([1]; mean of two experiments): ~9.4 µM and 9.4 µM; IC50 ([1]; substrate concentrations 20 to 80 µM, mean of two experiments): ~7 µM and 7 µM; AChE % IR (inhibition rate) [2, 11]: 9.1%; BuChE % IR (inhibition rate) [3, 11]: 14.8%; Vmax of rChAT ([5]; inhibitor 2.0 µM): 189.6 ± 17.3 µM/min; Vmax of rChAT ([5]; inhibitor 10.0 µM): 154.3 ± 13.4 µM/min; Vmax of rChAT ([5]; inhibitor 50.0 µM): 73.5 ± 9.7 µM/min; Vmax of rChAT ([5]; inhibitor 250.0 µM): 54.9 ± 6.8 µM/min
3 | CCn1c(CNC(=O)COc2ccccc2F)cc2ccccc21 [Compound C2] | 0 | 0 | – | 59.6 | ~365 µM and 365 µM | 87.7 ± 5.0 | 76.2 ± 7.6 | – | – | mode of inhibition of BuChE ([3]; Lineweaver-Burk plot and nonlinear regression analysis): competitive mode of inhibition
4 | CCn1c(CNC(=O)COc2ccc(F)cc2)cc2ccccc21 [Compound C4] | 0 | 4.9 | > 50 | 59.4 | 528 µM | 82.4 ± 4.5 | 84.0 ± 10.0 | – | – | –
5 | O=C(NCc1ccc(CN2CCCCC2)cc1)c1nc(-c2ccc(C(F)(F)F)cc2)no1 [Compound C5] | 0 | – | > 50 | – | – | 78.9 ± 3.3 | 36.1 ± 2.4 | 23.7 | ~6.3 µM and 6.3 µM | mode of inhibition of AChE [2, 10]: non-competitive mode of inhibition; BuChE IC50 [3, 9]: could not be calculated due to lack of complete inhibition even at the highest tested concentration of 300 µM
6 | CCN(CC)C(=O)c1cccc(Nc2ccc(-c3ccccc3OC)nn2)c1 [Compound D3] | 0 | > 50 | 20.7 | – | – | 79.2 ± 2.5 | 66.2 ± 4.0 | 177 | 251 µM | –
7 | COc1cc(CN2CCN(Cc3ccccc3Cl)CC2)c([N+](=O)[O-])cc1OC [Compound D4] | 3.5 | – | 18.2 | – | – | 84.0 ± 3.8 | 68.1 ± 1.4 | 141 | 146 µM | –
8 | C[N+](C)(C)CCC(=O)c1cccc2ccccc12.[I-] [α-NETA, 2-(alpha-naphthoyl)ethyltrimethylammonium iodide, reference compound] | 93 | – | – | – | – | – | – | – | – | ChAT % IR (inhibition rate) ([1]; 100 µM compound, compared to control, mean of three experiments in triplicate, 100 µM): 93.7%; IC50 [6]: 0.1 µM
